According to patent US20230278972A1, “SUBSTITUTED HALOALKYL SULFONANILIDE HERBICIDES” (FMC Corporation, priority 2020, published 2023):

Experiments:
Type in all cases: in vivo
[1] = system: corn (Zea mays); assay: Test A postemergence, corn; settings: Postemergence, 0 to 100 scale (0 no effect, 100 complete control); for Plant response rating, Corn: 125 g ai/ha; for Corn plant response rating: 500 g ai/ha, visual injury vs untreated controls after approx. 10 days
Text: (§1) Seeds of plant species selected from barnyardgrass (Echinochloa crus-galli), kochia (Bassia scoparia), ragweed (common ragweed, Ambrosia artemisiifolia), Ryegrass, Italian (Italian ryegrass, Lolium multiflorum), Foxtail, Giant (giant foxtail, Setaria faberi), and pigweed (Amaranthus retroflexus) were planted into a blend of loam soil and sand and treated preemergence with a directed soil spray using test chemicals formulated in a non-phytotoxic solvent mixture which included a surfactant. At the same time, plants selected from these weed species and also wheat (Triticum aestivum), corn (Zea mays), blackgrass (Alopecurus myosuroides), and galium (catchweed bedstraw, Galium aparine) were planted in pots containing the same blend of loam soil and sand and treated with postemergence applications of test chemicals formulated in the same manner. Plants ranged in height from 2 to 10 cm and were in the one- to two-leaf stage for the postemergence treatment. […] A dash (-) response means no test result.

[2] = system: Ryegrass, Italian (Italian ryegrass, Lolium multiflorum); assay: Test A preemergence, Ryegrass, Italian; settings: Preemergence; for Ryegrass, Italian plant response rating: 125 g ai/ha, visual injury on 0 to 100 scale (0 no effect, 100 complete control), approximately 10 days; for Plant response rating, Ryegrass, Italian: 500 g ai/ha, 0 to 100 scale (0 no effect, 100 complete control)
Text: as §1

[3] = system: wheat (Triticum aestivum); assay: Test A postemergence, wheat; settings: Postemergence, 0 to 100 scale (0 no effect, 100 complete control); for Plant response rating, Wheat: 125 g ai/ha; for Wheat plant response rating: 500 g ai/ha, visual injury vs untreated controls after approx. 10 days
Text: as §1

[4] = system: Ryegrass, Italian (Italian ryegrass, Lolium multiflorum); assay: Test A postemergence, Ryegrass, Italian; settings: Postemergence, 0 to 100 scale (0 no effect, 100 complete control); for Plant response rating, Ryegrass, Italian: 125 g ai/ha; for Ryegrass, Italian plant response rating: 500 g ai/ha, visual injury vs untreated controls after approx. 10 days
Text: as §1

[5] = system: kochia (Bassia scoparia); assay: Test A preemergence, kochia; settings: Preemergence; for Kochia plant response rating: 125 g ai/ha, visual injury on 0 to 100 scale (0 no effect, 100 complete control), approximately 10 days; for Plant response rating, Kochia: 500 g ai/ha, 0 to 100 scale (0 no effect, 100 complete control)
Text: as §1

[6] = system: Foxtail, Giant (giant foxtail, Setaria faberi); assay: Test A postemergence, Foxtail, Giant; settings: Postemergence, 0 to 100 scale (0 no effect, 100 complete control); for Plant response rating, Foxtail, Giant: 125 g ai/ha; for Foxtail, Giant plant response rating: 500 g ai/ha, visual injury vs untreated controls after approx. 10 days
Text: as §1

[7] = system: ragweed (common ragweed, Ambrosia artemisiifolia); assay: Test A postemergence, ragweed; settings: Postemergence, 0 to 100 scale (0 no effect, 100 complete control); for Plant response rating, Ragweed: 125 g ai/ha; for Ragweed plant response rating: 500 g ai/ha, visual injury vs untreated controls after approx. 10 days
Text: as §1

[8] = system: blackgrass (Alopecurus myosuroides); assay: Test A postemergence, blackgrass; settings: Postemergence, 0 to 100 scale (0 no effect, 100 complete control); for Plant response rating, Blackgrass: 125 g ai/ha; for Blackgrass plant response rating: 500 g ai/ha, visual injury vs untreated controls after approx. 10 days
Text: as §1

[9] = system: barnyardgrass (Echinochloa crus-galli); assay: Test A preemergence, barnyardgrass; settings: Preemergence; for Barnyardgrass plant response rating: 125 g ai/ha, visual injury on 0 to 100 scale (0 no effect, 100 complete control), approximately 10 days; for Plant response rating, Barnyardgrass: 500 g ai/ha, 0 to 100 scale (0 no effect, 100 complete control)
Text: as §1

[10] = system: galium (catchweed bedstraw, Galium aparine); assay: Test A postemergence, galium; settings: Postemergence, 0 to 100 scale (0 no effect, 100 complete control); for Plant response rating, Galium: 125 g ai/ha; for Galium plant response rating: 500 g ai/ha, visual injury vs untreated controls after approx. 10 days
Text: as §1

[11] = system: kochia (Bassia scoparia); assay: Test A postemergence, kochia; settings: Postemergence, 0 to 100 scale (0 no effect, 100 complete control); for Plant response rating, Kochia: 125 g ai/ha; for Kochia plant response rating: 500 g ai/ha, visual injury vs untreated controls after approx. 10 days
Text: as §1

[12] = system: barnyardgrass (Echinochloa crus-galli); assay: Test A postemergence, barnyardgrass; settings: Postemergence, 0 to 100 scale (0 no effect, 100 complete control); for Plant response rating, Barnyardgrass: 125 g ai/ha; for Barnyardgrass plant response rating: 500 g ai/ha, visual injury vs untreated controls after approx. 10 days
Text: as §1

[13] = system: Foxtail, Giant (giant foxtail, Setaria faberi); assay: Test A preemergence, Foxtail, Giant; settings: Preemergence; for Foxtail, Giant plant response rating: 125 g ai/ha, visual injury on 0 to 100 scale (0 no effect, 100 complete control), approximately 10 days; for Plant response rating, Foxtail, Giant: 500 g ai/ha, 0 to 100 scale (0 no effect, 100 complete control)
Text: as §1

[14] = system: ragweed (common ragweed, Ambrosia artemisiifolia); assay: Test A preemergence, ragweed; settings: Preemergence; for Ragweed plant response rating: 125 g ai/ha, visual injury on 0 to 100 scale (0 no effect, 100 complete control), approximately 10 days; for Plant response rating, Ragweed: 500 g ai/ha, 0 to 100 scale (0 no effect, 100 complete control)
Text: as §1

[15] = system: pigweed (Amaranthus retroflexus); assay: Test A postemergence, pigweed; settings: Postemergence, 0 to 100 scale (0 no effect, 100 complete control); for Plant response rating, Pigweed: 125 g ai/ha; for Pigweed plant response rating: 500 g ai/ha, visual injury vs untreated controls after approx. 10 days
Text: as §1

| SMILES | Plant response rating, Corn [1] | Corn plant response rating [1] | Ryegrass, Italian plant response rating [2] | Plant response rating, Ryegrass, Italian [2] | Plant response rating, Wheat [3] | Wheat plant response rating [3] | Plant response rating, Ryegrass, Italian [4] | Ryegrass, Italian plant response rating [4] | Kochia plant response rating [5] | Plant response rating, Kochia [5] | Plant response rating, Foxtail, Giant [6] | Foxtail, Giant plant response rating [6] | Plant response rating, Ragweed [7] | Ragweed plant response rating [7] | Plant response rating, Blackgrass [8] | Blackgrass plant response rating [8] | Barnyardgrass plant response rating [9] | Plant response rating, Barnyardgrass [9] | Plant response rating, Galium [10] | Galium plant response rating [10] | also measured |
| --- | --- | --- | --- | --- | --- | --- | --- | --- | --- | --- | --- | --- | --- | --- | --- | --- | --- | --- | --- | --- | --- |
| C#CCN(C)C(=O)c1cc(N(S(=O)(=O)C(F)(F)F)S(=O)(=O)C(F)(F)F)c(C)c(F)c1C [Compound 147] | 10 | 80 | 90 | 100 | 30 | 60 | 30 | 70 | 70 | 90 | 70 | 90 | 90 | 90 | 0 | 30 | 90 | 100 | 80 | 90 | Plant response rating, Kochia [11]: 50; Kochia plant response rating [11]: 70; Plant response rating, Barnyardgrass [12]: 90; Barnyardgrass plant response rating [12]: 90; Foxtail, Giant plant response rating [13]: 90; Plant response rating, Foxtail, Giant [13]: 100; Ragweed plant response rating [14]: 90; Plant response rating, Ragweed [14]: 90; Plant response rating, Pigweed [15]: 70; Pigweed plant response rating [15]: 90 |
| Cc1cc(C)c(C2=NOC3CCCC23)cc1NS(=O)(=O)C(F)(F)F (stereo not drawn) [Compound 164] | 0 | 80 | 80 | 100 | 60 | 70 | 80 | 90 | 100 | 100 | 0 | 40 | 70 | 90 | 0 | 40 | 90 | 100 | 80 | 90 | Plant response rating, Kochia [11]: 60; Kochia plant response rating [11]: 90; Plant response rating, Barnyardgrass [12]: 80; Barnyardgrass plant response rating [12]: 90; Foxtail, Giant plant response rating [13]: 90; Plant response rating, Foxtail, Giant [13]: 100; Ragweed plant response rating [14]: 90; Plant response rating, Ragweed [14]: 100; Plant response rating, Pigweed [15]: 70; Pigweed plant response rating [15]: 90 |
| Cc1cc(C(F)(F)F)c(NS(=O)(=O)C(F)(F)F)cc1C(=O)N1CCCCC1 [Compound 165] | 0 | 0 | 50 | 70 | 0 | 0 | 0 | 30 | 90 | 100 | 0 | 0 | 0 | 60 | 0 | 10 | 20 | 30 | 80 | 90 | Plant response rating, Kochia [11]: 10; Kochia plant response rating [11]: 60; Plant response rating, Barnyardgrass [12]: 0; Barnyardgrass plant response rating [12]: 30; Foxtail, Giant plant response rating [13]: 80; Plant response rating, Foxtail, Giant [13]: 90; Ragweed plant response rating [14]: 50; Plant response rating, Ragweed [14]: 100; Plant response rating, Pigweed [15]: 60; Pigweed plant response rating [15]: 90 |
| Cc1cc(C)c(C2=NOC3CCCC23)cc1NS(=O)(=O)C(F)(F)F (stereo not drawn) [Compound 166] | 10 | 50 | 70 | 100 | 70 | 70 | 90 | 90 | 90 | 100 | 50 | 60 | 40 | 80 | 10 | 20 | 100 | 100 | 80 | 90 | Plant response rating, Kochia [11]: 50; Kochia plant response rating [11]: 80; Plant response rating, Barnyardgrass [12]: 90; Barnyardgrass plant response rating [12]: 90; Foxtail, Giant plant response rating [13]: 80; Plant response rating, Foxtail, Giant [13]: 100; Ragweed plant response rating [14]: 20; Plant response rating, Ragweed [14]: 80; Plant response rating, Pigweed [15]: 40; Pigweed plant response rating [15]: 90 |
| Cc1cc(C)c(C2=NOC3(CCC(F)(F)CC3)C2)cc1NS(=O)(=O)C(F)(F)F [Compound 172] | 40 | 70 | 100 | 100 | 30 | 70 | 60 | 80 | 60 | 90 | 20 | 80 | 60 | 80 | 0 | 40 | 90 | 90 | 90 | 90 | Plant response rating, Kochia [11]: 40; Kochia plant response rating [11]: 80; Plant response rating, Barnyardgrass [12]: 60; Barnyardgrass plant response rating [12]: 80; Foxtail, Giant plant response rating [13]: 90; Plant response rating, Foxtail, Giant [13]: 100; Ragweed plant response rating [14]: 40; Plant response rating, Ragweed [14]: 90; Plant response rating, Pigweed [15]: 70; Pigweed plant response rating [15]: 90 |
